# From US6610471B1, “Methods and compositions to investigate infection by hepatitis B virus and agents to prevent and treat the infection” (priority 1998, dated 2003)
# Tested on: HBV
# Test: Intracellular HBV replicative intermediates in HBV baculovirus infected HepG2 cells (Southern blot, densitometry)
# Assay type: cell-based, hepatitis B virus
# Conditions: 50 pfu/cell
# Experimental: On the indicated days (3, 6, and 9 days of drug treatment) HBV replication in HepG2 cultures was assessed by examining extracellular HBV DNA and intracellular replicative intermediates.
# (T). […] Relaxed circular (RC) and double-stranded (DS) forms of HBV DNA are indicated. […] (T). […] Replicative intermediates were analyzed by Southern blotting. Double-stranded (DS) and single-stranded (SS) forms of HBV genomic DNA are indicated.
# HepG2 cells were seeded at approximately 20% to 40% confluency and then were grown for 16 to 24 hours before infection. On the day of infection, duplicate plates of cells were trypsinized, and viable cell number was determined with a hemocytometer using Trypan blue exclusion. Average cell counts were calculated and used to determine the volume of high-titer viral stock necessary to infect cells at the indicated moi. Baculovirus was diluted into MEM-FBS to achieve the appropriate moi using volumes of 1.0 and 0.25 mL to infect 100-mm and 35-mm dishes, respectively. Baculovirus was adsorbed to HepG2 cells for one hour at 37° C. with gentle rocking every 15 minutes to ensure that the inoculum was evenly distributed. The inoculum was then aspirated and HepG2 cells were washed two times with phosphate-buffered saline and refed MEM-FBS.
# HBV core particles were isolated from the cytoplasmic fraction of HepG2 cells lysed in 0.5% Np40. Cytoplasmic extracts were adjusted to 10 mmol/L MgCl2 and unprotected DNA was removed by an incubation with 500 μg/mL DNasel for 1 hour at 37° C. Samples were then adjusted to 50 mmol/L ethylenediaminetetraacetic acid, 50 mmol/L Tris, 0.5% sodium dodecyl sulfate, and digested with 500 μg/mL. Proteinase K for 1.5 hours at 37° C. Following sequential phenol and chloroform extractions, nucleic acids were recovered by ethanol precipitation. Nucleic acids were resuspended in 50 μL TE (10 mmol/L Tris, 1 mmol/L ethylenediaminetetraacetic acid), normalized by OD260, and digested with 100 μg/mL RNase (Boehringer Mannheim, Indianapolis, Ind.) for one hour at 37° C. before analysis by electrophoresis and Southern blotting. A Molecular Dynamics (Sunnyvale, Calif.) 100A laser densitometer equipped with Quantity One software (Protein Databases Inc., Huntington Station, N.Y.) was used to analyze suitable exposures of Southern blots.
# 3TC was a gift of BioChem Therapeutic Inc. (Laval, Quebec, Canada). […] Medium containing 3TC was prepared daily as needed using fresh aliquots of 3TC.
structure (smiles),measurement,setting,value
"Nc1ccn([C@@H]2CS[C@H](CO)O2)c(=O)n1 [3TC, (−)-2′-dideoxy-3′-thiacytidine]","intracellular HBV replicative intermediates, % Untreated Control","0.02 μM 3TC, P (from 16 h prior to infection), day 4 p.i. (3 days treatment)",82.5 % Untreated Control
same,"intracellular HBV replicative intermediates, % Untreated Control","0.02 μM 3TC, P (from 16 h prior to infection), day 7 p.i. (6 days treatment)",100 % Untreated Control
same,"intracellular HBV replicative intermediates, % Untreated Control","0.02 μM 3TC, P (from 16 h prior to infection), day 10 p.i. (9 days treatment)",68.2 % Untreated Control
same,"intracellular HBV replicative intermediates, % Untreated Control","0.02 μM 3TC, T (from 24 h p.i.), day 4 p.i. (3 days treatment)",57.4 % Untreated Control
same,"intracellular HBV replicative intermediates, % Untreated Control","0.02 μM 3TC, T (from 24 h p.i.), day 7 p.i. (6 days treatment)",100 % Untreated Control
same,"intracellular HBV replicative intermediates, % Untreated Control","0.02 μM 3TC, T (from 24 h p.i.), day 10 p.i. (9 days treatment)",59.6 % Untreated Control
same,"intracellular HBV replicative intermediates, % Untreated Control","0.2 μM 3TC, P (from 16 h prior to infection), day 4 p.i. (3 days treatment)",41.7 % Untreated Control
same,"intracellular HBV replicative intermediates, % Untreated Control","0.2 μM 3TC, P (from 16 h prior to infection), day 7 p.i. (6 days treatment)",20.0 % Untreated Control
same,"intracellular HBV replicative intermediates, % Untreated Control","0.2 μM 3TC, P (from 16 h prior to infection), day 10 p.i. (9 days treatment)",6.5 % Untreated Control
same,"intracellular HBV replicative intermediates, % Untreated Control","0.2 μM 3TC, T (from 24 h p.i.), day 4 p.i. (3 days treatment)",35.0 % Untreated Control
same,"intracellular HBV replicative intermediates, % Untreated Control","0.2 μM 3TC, T (from 24 h p.i.), day 7 p.i. (6 days treatment)",16.7 % Untreated Control
same,"intracellular HBV replicative intermediates, % Untreated Control","0.2 μM 3TC, T (from 24 h p.i.), day 10 p.i. (9 days treatment)",6.7 % Untreated Control
same,"intracellular HBV replicative intermediates, % Untreated Control","2.0 μM 3TC, P (from 16 h prior to infection), day 4 p.i. (3 days treatment)",8.2 % Untreated Control
same,"intracellular HBV replicative intermediates, % Untreated Control","2.0 μM 3TC, P (from 16 h prior to infection), day 7 p.i. (6 days treatment)",7.1 % Untreated Control
same,"intracellular HBV replicative intermediates, % Untreated Control","2.0 μM 3TC, P (from 16 h prior to infection), day 10 p.i. (9 days treatment)",1.3 % Untreated Control
same,"intracellular HBV replicative intermediates, % Untreated Control","2.0 μM 3TC, T (from 24 h p.i.), day 4 p.i. (3 days treatment)",12.1 % Untreated Control
same,"intracellular HBV replicative intermediates, % Untreated Control","2.0 μM 3TC, T (from 24 h p.i.), day 7 p.i. (6 days treatment)",8.5 % Untreated Control
same,"intracellular HBV replicative intermediates, % Untreated Control","2.0 μM 3TC, T (from 24 h p.i.), day 10 p.i. (9 days treatment)",2.1 % Untreated Control
